Reference: ChEMBL document CHEMBL1201862, “PubChem BioAssay data set” (2004)
Active and inactive are the calls of the source. For most assays here, no stated cut-off is given here; in the data, actives have a measured EC50 and inactives only a lower limit.

Columns and labels:
[1] = target: T1, Streptokinase A (Streptococcus pyogenes serotype M1, UniProt P10520); assay: viability-normalized secreted streptokinase activity reduction – plasminogen activation absorbance, OD405, dose response (AID 1914); format: functional, Streptococcus pyogenes M1 GAS;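 further: secreted streptokinase activity via plasminogen activation per viability signal from cell pellet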
T1 sequence (P10520 whole entry): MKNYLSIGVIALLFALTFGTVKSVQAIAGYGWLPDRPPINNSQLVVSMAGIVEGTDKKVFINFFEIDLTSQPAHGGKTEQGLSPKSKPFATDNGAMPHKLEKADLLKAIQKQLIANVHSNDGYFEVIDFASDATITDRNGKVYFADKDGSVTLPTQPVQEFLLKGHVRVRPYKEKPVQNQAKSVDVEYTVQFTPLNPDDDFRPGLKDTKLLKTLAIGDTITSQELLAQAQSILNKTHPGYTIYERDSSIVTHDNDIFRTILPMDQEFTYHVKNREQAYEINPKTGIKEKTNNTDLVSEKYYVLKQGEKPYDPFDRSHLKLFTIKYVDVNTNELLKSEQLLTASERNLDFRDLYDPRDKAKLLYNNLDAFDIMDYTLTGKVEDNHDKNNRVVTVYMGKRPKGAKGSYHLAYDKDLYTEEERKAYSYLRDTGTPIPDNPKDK

[2] = reduction of Shn3 3'UTR-driven luciferase in osteoblasts – cell-based, Clone20 osteoblasts, firefly luciferase, cherry-picked, dose response (AID 624132); format: functional;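 further: firefly luciferase luminescence from reporter carrying the Shn3 3'UTR in osteoblasts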
[3] = tested on: Streptococcus sp. 'group A'; assay: Streptococcus pyogenes SK(-)GAS viability under kanamycin – luminescence, BacTiterGlo, confirmation, counter-screen for streptokinase expression inhibitor project, dose response (AID 1900); format: functional, organism-based
[4] = fluconazole-exposed Candida albicans growth modulators – fluorescence, retest, confirmation (AID 2467); format: functional, cell-based
[5] = target: T2, Type-1 angiotensin II receptor (Homo sapiens, UniProt P30556); assay: antagonism of angiotensin II type 1 receptor – cell-based, uHTS hits, selectivity assay for APJ receptor antagonist project, dose response (AID 463214); format: functional;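 further: antagonist potency against angiotensin II stimulated AT1 response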
T2 sequence (P30556 whole entry): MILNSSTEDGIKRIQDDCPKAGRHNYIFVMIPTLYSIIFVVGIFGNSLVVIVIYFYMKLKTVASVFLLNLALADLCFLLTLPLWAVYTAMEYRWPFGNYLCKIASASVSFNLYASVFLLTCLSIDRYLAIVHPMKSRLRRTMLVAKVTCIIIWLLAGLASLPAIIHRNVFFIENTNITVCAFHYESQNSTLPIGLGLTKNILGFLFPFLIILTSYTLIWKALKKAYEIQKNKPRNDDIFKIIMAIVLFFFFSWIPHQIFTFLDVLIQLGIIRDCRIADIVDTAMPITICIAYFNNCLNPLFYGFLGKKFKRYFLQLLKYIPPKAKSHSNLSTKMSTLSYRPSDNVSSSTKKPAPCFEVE

[6] = tested on: Streptococcus; assay: GAS UMAA2166 growth inhibition – luminescence, BacTiterGlo, counter-screen for streptokinase expression inhibitor project, dose response (AID 1915); format: functional, organism-based;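 further: potency for reduction of bacterial viability or growth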
[7] = tested on: H9c2; assay: cells; format: functional, cell-based; conditions: Rattus norvegicus, H9c2, Myocardium;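 further: confirmatory concentration-response retest of ultra-high-throughput screening hits for modulation of myocardial damage; cell death induced by hydrogen peroxide oxidative stress; compound pretreatment for 60 min then peroxide exposure for 2 h; potency is for protecting the cells against peroxide damage rather than for killing them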
[8] = target: T3, Heat shock factor protein 1 (Mus musculus, UniProt P38532); assay: enhancement of HSF1-driven luciferase signal – cell-based, NIH3T3, luminescence, dose retest, confirmation (AID 435004); format: functional;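 further: stress induced by proteasome inhibitor MG132 added 30 min after compound; luciferase reporter driven by HSF1 response element in NIH3T3 cells; actives raise luminescence as potentiators of the MG132 stress response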
T3 sequence (P38532 whole entry): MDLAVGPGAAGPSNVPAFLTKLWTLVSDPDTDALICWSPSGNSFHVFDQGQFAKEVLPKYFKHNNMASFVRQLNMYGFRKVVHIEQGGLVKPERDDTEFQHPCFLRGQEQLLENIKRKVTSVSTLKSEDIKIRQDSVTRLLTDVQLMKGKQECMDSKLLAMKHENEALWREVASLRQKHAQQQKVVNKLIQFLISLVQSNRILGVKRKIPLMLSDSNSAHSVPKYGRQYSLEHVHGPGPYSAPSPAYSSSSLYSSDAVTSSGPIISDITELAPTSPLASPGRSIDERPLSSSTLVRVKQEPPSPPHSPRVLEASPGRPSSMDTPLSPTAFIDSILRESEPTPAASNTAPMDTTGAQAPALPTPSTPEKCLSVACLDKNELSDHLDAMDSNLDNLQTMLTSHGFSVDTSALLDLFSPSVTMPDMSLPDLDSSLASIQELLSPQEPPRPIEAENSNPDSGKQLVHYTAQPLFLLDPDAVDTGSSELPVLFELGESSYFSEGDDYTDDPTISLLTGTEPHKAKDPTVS

[9] = loss of viability in HepG2 cells – cell-based, CellTiter-Glo, cherry-picked, cytotoxicity control for Shn3 inhibitor project, dose response (AID 624134); format: functional
[10] = target: Beta-galactosidase (Escherichia coli, UniProt Q8VNN2); assay: PubChem AID 485352; format: functional
[11] = Trypanosoma cruzi growth suppression in host cells – NIH3T3 host cells, beta-gal luminescence, confirmation (AID 2044); format: functional, cell-based;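 further: intracellular parasites grown in NIH/3T3 mouse fibroblasts as host cells; luminescent beta-galactosidase reporter signal from transgenic T. cruzi replicating inside host cells; inhibitors lower the luminescence signal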
[12] = NIH3T3 cell viability loss – ATP luminescence, mouse fibroblasts, counter-screen, dose response (AID 2010); format: functional, cell-based;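 further: cells exposed to compound for about 90 hours before reading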
[13] = NIH-3T3 fibroblast cytotoxicity, dose response, cytotoxicity control, cell-based, fluorescence, Alamar Blue, secondary assay (AID 2327); format: functional;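 further: NIH-3T3 mouse fibroblasts cultured with fluconazole at 8 µg/mL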
[14] = target: T4, Hexokinase-1 (Homo sapiens, UniProt P19367); assay: SAR analysis of small molecule inhibitors of hexokinase domain containing I (HKDC1) in the hexokinase 1 selectivity assay. [Related pubchem assays (depositor defined):AID493160, AID493190]; format: functional
T4 sequence (P19367 whole entry): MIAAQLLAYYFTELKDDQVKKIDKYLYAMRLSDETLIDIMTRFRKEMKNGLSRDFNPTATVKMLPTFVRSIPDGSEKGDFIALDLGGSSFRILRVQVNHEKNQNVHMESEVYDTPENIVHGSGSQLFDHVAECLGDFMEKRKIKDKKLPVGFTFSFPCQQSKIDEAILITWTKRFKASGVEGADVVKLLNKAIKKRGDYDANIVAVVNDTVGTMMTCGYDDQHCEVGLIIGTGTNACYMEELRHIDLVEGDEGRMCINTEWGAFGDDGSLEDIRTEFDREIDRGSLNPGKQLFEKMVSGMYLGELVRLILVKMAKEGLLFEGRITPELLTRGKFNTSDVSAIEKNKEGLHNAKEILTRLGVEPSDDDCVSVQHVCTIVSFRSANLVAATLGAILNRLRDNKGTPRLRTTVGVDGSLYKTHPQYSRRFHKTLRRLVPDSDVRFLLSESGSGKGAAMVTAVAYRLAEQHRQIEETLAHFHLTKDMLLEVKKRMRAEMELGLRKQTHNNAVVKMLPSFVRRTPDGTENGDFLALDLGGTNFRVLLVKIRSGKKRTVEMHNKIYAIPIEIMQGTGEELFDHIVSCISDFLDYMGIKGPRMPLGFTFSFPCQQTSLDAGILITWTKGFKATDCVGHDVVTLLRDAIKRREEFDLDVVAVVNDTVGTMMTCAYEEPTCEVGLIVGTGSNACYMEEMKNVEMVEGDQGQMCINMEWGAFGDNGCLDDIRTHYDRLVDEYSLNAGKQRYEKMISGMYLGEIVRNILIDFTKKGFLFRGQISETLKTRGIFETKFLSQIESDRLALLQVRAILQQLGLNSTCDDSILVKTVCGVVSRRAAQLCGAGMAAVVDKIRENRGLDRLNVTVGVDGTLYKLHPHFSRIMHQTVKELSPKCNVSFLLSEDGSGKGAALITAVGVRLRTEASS

[15] = target: T5, Hexokinase HKDC1 (Homo sapiens, UniProt Q2TB90); assay: SAR analysis of small molecule inhibitors of hexokinase domain containing I (HKDC1). [Related pubchem assays (depositor defined):AID493160, AID493190]; format: functional
T5 sequence (Q2TB90 whole entry): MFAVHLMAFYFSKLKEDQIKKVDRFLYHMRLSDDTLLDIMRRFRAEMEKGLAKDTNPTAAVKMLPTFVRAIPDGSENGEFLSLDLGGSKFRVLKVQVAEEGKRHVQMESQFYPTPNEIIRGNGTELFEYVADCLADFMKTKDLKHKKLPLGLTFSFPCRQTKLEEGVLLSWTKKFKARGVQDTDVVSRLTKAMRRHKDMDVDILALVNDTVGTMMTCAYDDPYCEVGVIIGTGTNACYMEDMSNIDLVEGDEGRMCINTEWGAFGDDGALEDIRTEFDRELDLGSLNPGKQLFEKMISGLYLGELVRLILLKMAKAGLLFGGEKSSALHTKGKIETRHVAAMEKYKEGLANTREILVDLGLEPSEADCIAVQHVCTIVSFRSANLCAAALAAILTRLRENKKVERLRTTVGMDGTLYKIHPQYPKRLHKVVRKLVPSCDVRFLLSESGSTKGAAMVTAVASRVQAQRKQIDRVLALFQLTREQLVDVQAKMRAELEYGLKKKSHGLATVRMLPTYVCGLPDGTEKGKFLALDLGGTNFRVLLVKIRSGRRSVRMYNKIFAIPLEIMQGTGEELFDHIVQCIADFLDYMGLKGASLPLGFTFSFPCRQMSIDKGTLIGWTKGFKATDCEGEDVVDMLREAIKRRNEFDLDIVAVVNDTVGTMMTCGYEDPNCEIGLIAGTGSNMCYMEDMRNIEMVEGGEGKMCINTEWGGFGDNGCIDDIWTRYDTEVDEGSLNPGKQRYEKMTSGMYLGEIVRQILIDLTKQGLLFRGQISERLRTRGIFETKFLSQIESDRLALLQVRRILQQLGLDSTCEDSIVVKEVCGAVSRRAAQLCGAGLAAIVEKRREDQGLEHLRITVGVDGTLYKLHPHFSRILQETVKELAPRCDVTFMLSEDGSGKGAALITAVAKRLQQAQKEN

[16] = target: ATP-dependent molecular chaperone HSP82 (Candida albicans (strain WO-1) (Yeast), UniProt C4YTQ8); assay: steroid-induced GRE reporter decrease in yeast – S. cerevisiae, luminescence, Hsp90 inhibitor project, dose response (AID 2400); format: functional, cell-based;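 further: beta-galactosidase luminescence from glucocorticoid response element reporter as proxy for Hsp90 function; inhibitor potency where signal loss means Hsp90 inhibition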
[17] = target: T6, Serine/threonine-protein phosphatase (Candida dubliniensis (strain CD36 / CBS 7987 / NCPF 3949 / NRRLY-17841) (Yeast), UniProt B9W6M3); assay: blockers of CaCl2-induced CDRE-lacZ signaling – S. cerevisiae, luminescence, secondary, dose response (AID 2388); format: functional, cell-based;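 further: yeast reporter cells carrying a calcineurin-responsive lacZ construct stimulated with calcium chloride; luminescent beta-galactosidase reporter signal in whole cells rather than isolated phosphatase activity; potency for inhibition where a drop in reporter signal means calcineurin blockade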
T6 sequence (B9W6M3 whole entry): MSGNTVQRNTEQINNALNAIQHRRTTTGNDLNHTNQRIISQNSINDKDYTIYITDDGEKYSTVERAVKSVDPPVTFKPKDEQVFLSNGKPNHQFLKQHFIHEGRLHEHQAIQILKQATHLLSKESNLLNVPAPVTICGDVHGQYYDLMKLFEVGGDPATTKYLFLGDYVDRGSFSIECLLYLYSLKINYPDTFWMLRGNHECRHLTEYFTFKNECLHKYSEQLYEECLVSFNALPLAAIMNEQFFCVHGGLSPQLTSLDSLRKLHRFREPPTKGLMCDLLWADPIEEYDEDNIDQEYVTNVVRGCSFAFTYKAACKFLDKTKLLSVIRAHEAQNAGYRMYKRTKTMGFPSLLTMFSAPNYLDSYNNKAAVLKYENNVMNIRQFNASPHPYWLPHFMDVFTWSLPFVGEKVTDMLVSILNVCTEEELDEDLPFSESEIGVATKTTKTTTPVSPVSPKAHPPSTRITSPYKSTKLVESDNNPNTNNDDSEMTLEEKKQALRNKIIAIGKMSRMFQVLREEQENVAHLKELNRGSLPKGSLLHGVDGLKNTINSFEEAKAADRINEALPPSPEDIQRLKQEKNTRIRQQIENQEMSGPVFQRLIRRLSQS

Chain of ATP-dependent molecular chaperone HSP82 (C4YTQ8 whole entry): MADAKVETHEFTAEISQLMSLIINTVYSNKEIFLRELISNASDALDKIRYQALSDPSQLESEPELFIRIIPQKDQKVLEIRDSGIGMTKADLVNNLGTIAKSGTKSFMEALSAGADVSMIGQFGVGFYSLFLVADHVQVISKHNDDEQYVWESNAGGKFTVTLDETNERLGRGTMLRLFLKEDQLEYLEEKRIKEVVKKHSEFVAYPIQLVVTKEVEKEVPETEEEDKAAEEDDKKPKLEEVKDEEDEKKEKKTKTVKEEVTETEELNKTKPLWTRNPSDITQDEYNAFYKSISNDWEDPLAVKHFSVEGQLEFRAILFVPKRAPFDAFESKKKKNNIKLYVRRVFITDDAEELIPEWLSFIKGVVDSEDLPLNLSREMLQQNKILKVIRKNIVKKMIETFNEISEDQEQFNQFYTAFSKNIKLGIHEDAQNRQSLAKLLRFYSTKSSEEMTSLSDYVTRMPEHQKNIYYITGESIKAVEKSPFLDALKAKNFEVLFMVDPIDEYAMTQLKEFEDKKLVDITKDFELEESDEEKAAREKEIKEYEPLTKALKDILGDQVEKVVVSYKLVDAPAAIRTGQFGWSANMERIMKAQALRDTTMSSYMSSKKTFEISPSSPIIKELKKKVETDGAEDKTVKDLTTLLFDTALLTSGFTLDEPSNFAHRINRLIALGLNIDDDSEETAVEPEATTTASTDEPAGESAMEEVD
Chain of Beta-galactosidase (Q8VNN2 whole entry): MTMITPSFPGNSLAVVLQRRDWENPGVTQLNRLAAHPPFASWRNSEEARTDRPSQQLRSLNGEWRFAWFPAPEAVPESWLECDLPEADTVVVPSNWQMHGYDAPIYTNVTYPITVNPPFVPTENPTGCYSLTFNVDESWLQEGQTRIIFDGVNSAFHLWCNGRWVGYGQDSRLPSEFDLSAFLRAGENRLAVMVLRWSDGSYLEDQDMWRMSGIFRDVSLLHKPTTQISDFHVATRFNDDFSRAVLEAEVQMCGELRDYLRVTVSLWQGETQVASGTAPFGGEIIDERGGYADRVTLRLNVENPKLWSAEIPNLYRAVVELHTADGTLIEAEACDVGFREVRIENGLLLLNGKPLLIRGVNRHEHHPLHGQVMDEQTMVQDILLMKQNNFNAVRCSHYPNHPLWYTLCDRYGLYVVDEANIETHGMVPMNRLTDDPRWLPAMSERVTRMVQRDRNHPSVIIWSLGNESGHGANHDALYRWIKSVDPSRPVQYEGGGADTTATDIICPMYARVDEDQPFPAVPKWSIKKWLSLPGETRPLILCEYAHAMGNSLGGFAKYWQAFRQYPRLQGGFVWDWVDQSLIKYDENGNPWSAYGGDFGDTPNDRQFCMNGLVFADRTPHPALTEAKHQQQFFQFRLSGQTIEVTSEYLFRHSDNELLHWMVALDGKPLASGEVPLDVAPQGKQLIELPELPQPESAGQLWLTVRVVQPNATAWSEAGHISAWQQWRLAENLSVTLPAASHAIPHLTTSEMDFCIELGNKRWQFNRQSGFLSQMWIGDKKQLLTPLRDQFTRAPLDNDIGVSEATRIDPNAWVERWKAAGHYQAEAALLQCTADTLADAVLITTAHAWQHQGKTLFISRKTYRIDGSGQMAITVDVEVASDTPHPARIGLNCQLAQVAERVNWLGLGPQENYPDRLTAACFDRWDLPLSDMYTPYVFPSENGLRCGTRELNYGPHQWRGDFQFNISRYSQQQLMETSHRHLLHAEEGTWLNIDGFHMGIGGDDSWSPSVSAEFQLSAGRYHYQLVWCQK

Row | Compound | EC50 [4] | EC50 [13] | IC50 [14] | IC50 [15] | EC50 [16] | EC50 [17] | also measured
1 | COc1ccc(NS(=O)(=O)c2ccc3ccccc3c2)c2ncccc12 | > 38 µM (not active) | 60.9 µM (active) | – | – | – | – | EC50 [1]: > 150 µM (not active); AC50 [2]: 4.82 µM (active); EC50 [3]: 1.03 µM (active); IC50 [5]: 23.1 µM (not active); EC50 [6]: 4.63 µM (active); IC50 [7]: 11.5 µM (active); EC50 [8]: 7.48 µM (active); AC50 [9]: 69.5 µM (active); EC50 [10]: > 40 µM (inactive); EC50 [11]: 0.688 µM (active); EC50 [12]: 5.55 µM (active)
2 | O=c1c2ccccc2nc(/C=C/c2ccccn2)n1Cc1ccccc1 | – | – | > 80 µM (inactive) | > 80 µM (inactive) | – | – | –
3 | O=c1c2ccccc2nc(/C=C/c2ccccc2)n1Cc1ccccc1 | – | – | > 80 µM (inactive) | > 80 µM (inactive) | – | – | –
4 | O=C(Cc1ccc(Cl)cc1)NNC(=S)NC(=O)c1cccs1 | 1.43 µM (active) | > 160 µM (inactive) | – | – | 16.6 µM (active) | > 180 µM (inactive) | –
5 | O=C(CCS(=O)(=O)c1ccc(F)cc1)Nc1nc(-c2ccncc2)cs1 | 1.39 µM (active) | 18.3 µM (inconclusive) | – | – | 16.5 µM (active) | > 180 µM (inactive) | –
6 | Cc1cc2nnc(SCC(=O)Nc3cccc(S(=O)(=O)N4CCCC4)c3)n2c2ccccc12 | – | – | > 80 µM (inactive) | > 80 µM (inactive) | – | – | –
